Measured values published in publication PMC7414126 (Scientific Reports, 2020).
Several values for one entry are separate records, joined by “and”; a condition that tells them apart may be missing. Identical values can stand only once.

Biological target: T1, NLuc-hH2R (Homo sapiens, UniProt P25021)
T1 construct: membrane signal peptide of the murine 5HT3A receptor (N); expressed in transfected cells
Experiment: Real-time NanoBRET kinetic binding experiments
Experimental: The cell line stably expressing the NLuc-hH2R construct was detached from the cell culture dishes after reaching ~ 80% confluency by treatment with trypsin/EDTA (0.05%/0.2%, for 2 min at 37 °C) and was centrifuged (600×g, 5 min). The cell pellet was then resuspended in Leibovitz’ L-15 medium (L-15), supplemented with 5% FCS + 10 mM HEPES, and 1.0 × 10^5 cells/well were seeded in 70 µL (saturation and competition binding) or 80 µL (kinetic experiments) of assay medium into white 96-well cell-Grade™ plates (Brand GmbH & Co. KG, Wertheim, Germany). The cells were then incubated at 37 °C in a humidified atmosphere (no additional CO2) overnight. For saturation binding experiments, serial dilutions (tenfold concentrated) of the fluorescent ligands (8–10) and famotidine (4, 300-fold excess over the respective concentration of fluorescent ligand, non-specific binding) were prepared in dilution buffer (L-15 + 2% BSA + 10 mM HEPES). 10 µL of the fluorescent ligand dilution and 10 µL of L-15 (total binding) or the dilution of 4 (non-specific binding) were added to the cells. After 60 min incubation time at 27 °C, 10 µL of the substrate furimazine, which was diluted according to manufacturer’s protocol beforehand, were added. After 5 min of equilibration time at 27 °C, the measurement was started. Competition binding experiments were performed as described above using one fixed concentration of fluorescent ligand 8 (c = 50 nM) and varying concentrations of the competitors 1–4, 11, 12, that were added at the same time. Kinetic measurements were performed as follows: 10 µL of L-15 (for total binding) or 4 (300-fold excess, c = 15 µM, non-specific binding) were added to the cells. After addition of the diluted substrate, the plate was placed inside the reader for 5 min to equilibrate. To start association 50 µL of a threefold concentrated solution of the fluorescent ligand 8 (cfinal = 50 nM) were added to the adherent cells and the plate was measured for 60 min. Dissociation experiments were conducted in wells, which have been preincubated with 8 as described above for association experiments. To initiate dissociation, 50 µL of a fourfold concentrated solution of 4 (300-fold excess, cfinal = 15 µM) were added to the cells and the measurement was performed for 4 h. All measurements were performed on a TECAN InfiniteLumi plate reader (TECAN, Grödig, Austria) at 27 °C using the Blue2 NB (460 nm ± 35 nm, bandpass) and the Red NB (> 610 nm, longpass) filter combination with an integration time of 100 ms. For the kinetic experiments, integration time was increased to 500 ms for both channels to reduce noise. BRET ratios were calculated by dividing the acceptor emission (red NB) by the donor luminescence (Blue2 NB).
For kinetic experiments, association experiments were fitted with the “one-phase association” fit yielding kobs, whereas the dissociation experiments were fitted assuming a “one-phase decay” model resulting in koff. The association rate constant kon was calculated using the following equation: kon = (kobs − koff)/c(ligand); c(ligand) = 50 nM. Dissociation half-life t1/2 was calculated applying the following formula: t1/2 = ln(2)/koff.The kinetic equilibrium dissociation constant Kd(kin) was calculated as follows: Kd(kin) = koff/kon. The errors for kon, t1/2 and Kd(kin) were calculated according to the Gaussian law of error propagation. All experimental data were analyzed using Prism 8 software (GraphPad, San Diego, CA, USA).

T1 sequence (P25021 whole entry): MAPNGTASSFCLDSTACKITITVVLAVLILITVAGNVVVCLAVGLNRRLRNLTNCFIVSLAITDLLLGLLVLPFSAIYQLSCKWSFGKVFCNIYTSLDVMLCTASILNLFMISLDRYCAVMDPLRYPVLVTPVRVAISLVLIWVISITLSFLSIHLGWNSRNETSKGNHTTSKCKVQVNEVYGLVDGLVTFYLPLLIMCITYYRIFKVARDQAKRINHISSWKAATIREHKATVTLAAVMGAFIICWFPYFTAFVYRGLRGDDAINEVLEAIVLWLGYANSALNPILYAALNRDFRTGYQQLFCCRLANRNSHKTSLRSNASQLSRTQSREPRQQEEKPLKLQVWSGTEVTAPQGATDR

Time to full association (fully bound to the receptor) (50 nM of 8): approximately 30 min
Amount of ligand displaced within 240 min (300-fold excess famotidine (15 µM), after 60 min preincubation with 50 nM 8): 35–40%
Kd (Kd(kin) = koff/kon): 1.3 ± 0.16 nM
kobs (association of 8, c = 50 nM, mean ± SEM, four experiments): 0.093 ± 0.009 min⁻¹
koff (dissociation started with famotidine 15 µM after 60 min preincubation with 50 nM 8): 3.83e-05 s⁻¹
kon (kon = (kobs − koff)/c(ligand), c = 50 nM, read-out: kon (association rate constant) (converted)): 30000 M⁻¹ s⁻¹
Dissociation half-life t1/2 (t1/2 = ln(2)/koff): 5 h and 5.007 ± 0.3317 h
SMILES: Cc1cc(/C=C/c2cc3c4c(c2)CCCN4CCC3)cc(C)[n+]1CCCCNc1c(NCCCOc2cccc(CN3CCCCC3)c2)c(=O)c1=O [Compound 8, (E)-1-(4-((3,4-Dioxo-2-((3-(3-(piperidin-1-ylmethyl)phenoxy)propyl)amino)cyclobut-1-en-1-yl)amino)butyl)-2,6-dimethyl-4-(2-(2,3,6,7-tetrahydro-1H,5H-pyrido[3,2,1-ij]quinolin-9-yl)vinyl)pyridin-1-ium]
